According to patent publication US20240148671A1, “METHODS FOR IMPROVING POULTRY HEALTH” (CORNELL UNIVERSITY, priority 2021, published 2024):

Tests used:
Format in all cases: in vivo, Gallus gallus
AP (Aminopeptidase) = experiment: Gene expression (RT-PCR), AP; settings: at hatch; b175: relative to the 18 MΩ M2O and 5% inulin control groups; b192: comparator not stated; p<0.05
Description: (§1) The pure resveratrol and pterostilbene were individually diluted in 18 MΩ H2O. The intra-amniotic administration followed the methodology previously described. On the 17th day of embryonic development, the eggs with viable embryos (n=60) were randomly allocated into 6 groups (n=10) with a similar weight frequency distribution. For the intra-amniotic treatment, 1 mL of solution per egg was injected into the amniotic fluid (via candling) with the aid of a 21-gauge needle. […]
(§2) The RNA was isolated as described previously (RNeasy Mini Kit, Qiagen Inc., Valencia, CA, USA), and 30 mg of the duodenal tissue or liver tissue (n =8) was used to extract the total RNA. […] Finally, the RNA was eluted in 50 μL of RNase-free water and quantified by absorbance at 260 and 280 nm.
(§3) RT-PCR was conducted as described. […] The cDNA content was assessed by absorbance at 260 and 280 nm, with an extinction coefficient of 33 (single-stranded DNA). Genomic DNA contamination was evaluated via a real-time RT-PCR assay for the reference gene samples [17,18,30]. […]
(§4) The procedures were performed as previously published. […] The optimal MgCl2 concentration achieved, for each reaction, an amplification plot (lowest cycle product, Cp), the uppermost fluorescence intensity and the steepest amplification slope. […]

cecal microbiome = experiment: 16S rRNA gene sequencing of the cecal microbiota; settings: cecal content at hatch
Description: The pure resveratrol and pterostilbene were individually diluted in 18 MΩ H2O. The intra-amniotic administration followed the methodology previously described. On the 17th day of embryonic development, the eggs with viable embryos (n=60) were randomly allocated into 6 groups (n=10) with a similar weight frequency distribution. For the intra-amniotic treatment, 1 mL of solution per egg was injected into the amniotic fluid (via candling) with the aid of a 21-gauge needle. After the procedure, the injection sites were sealed with cellophane tape, and the eggs were distributed into six groups: (1) no injection; (2) 18 MΩ H2O; (3) 5% inulin; (4) 5% resveratrol; (5) 5% pterostilbene; and (6) synergistic: 4.75% resveratrol and 0.25% pterostilbene. […] The eggs were equally distributed in each incubator location to reduce possible allocation bias. Upon hatching (21 days), the hatchlings were euthanized by CO2 exposure, and the blood, liver, heart, pectoral muscle, small intestine and cecum were obtained.
As was formerly described, cecal samples were used to extract microbial genomic DNA (PowerSoil DNA isolation kit, MoBio Laboratories Ltd., Carlsbad, CA, USA). […] The PCR products were purified (Beckman Coulter, Atlanta, GA, USA) and quantified (Quant-iT PicoGreen dsDNA quantitation kit, Invitrogen, Carlsbad, CA, USA). […]
The 16S rRNA gene sequence analysis was performed using QIIME2 as previously described. The sequence reads were demultiplexed by per-sample barcodes, and the Divisive Amplicon Denoising Algorithm (DADA2) was used to correct the Illumina-sequenced amplicon read errors. […] The alpha and β diversity were calculated from samples containing at least 9.800 sequences. The alpha diversity parameter, a measure of the richness of the bacterial community, was calculated using the Shannon Index, and the beta diversity was assessed by a Jaccard similarity distance matrix. […]
The values in this paper were expressed as means and standard errors of the means (SEM). […] The results were analyzed by Analysis of Variance (ANOVA). […]

[1] = test system: AT1R (angiotensin II receptor type I); experiment: Gene expression (RT-PCR), AT1R; settings: intestinal and heart gene expression (FIG. 2); b176: compared with the no injection control; b192: comparator not stated; b210: between the experimental groups
Description: as §1, §2, §3, §4

- AP relative expression (AP (Aminopeptidase)): downregulated
- AT1R gene expression [1]: downregulated
Structure (SMILES): Oc1ccc(C=Cc2cc(O)cc(O)c2)cc1 [5% Resveratrol, Resveratrol]
- β diversity of the cecal microbiome (Jaccard distances), comparison between groups (cecal microbiome; n=5, 5% inulin vs all other experimental groups (p<0.01), 5% pterostilbene vs 18 MΩ H2O control (p<0.05), stilbene groups among each other): strong clustering
- Most differentially enriched taxa (LEfSe) vs no injection control (cecal microbiome; compared with the no injection control group, p<0.05 (FIGS. 5A-5B)): Enterobacteriales order and Enterobacteriaceae family
